# From patent publication US6903100B2, “USE OF REGULARLY SCHEDULED HIGH DOSE INTRAVENOUS METHOTREXATE THERAPY, WITH INTERIM ADMINISTRATION OF IMMUNOMODULATORY AGENTS, TO TREAT MULTIPLE SCLEROSIS AND OTHER DISEASES OF THE CENTRAL NERVOUS SYSTEM” (MidAmerica Neuroscience Research Foundation, priority 2001, dated 2005)
# Where “and” joins values, the source holds several entries; their conditions need not be identical. Equal entries are not always repeated.
# Columns and labels:
# [1] = cited from earlier work; for crossing of the blood brain barrier (BBB) into the CNS: in vivo
# MS; CNS lymphomas = conditions: cited from earlier work
# [2] = Safety of high dose IV methotrexate with leucovorin rescue in MS patients; assay type: in vivo
# Description: (§1) Methotrexate treatments were given every 2 months for up to 6 treatments. Methotrexate was administered by IV at a dosage of 1 g/m^2 for the first three treatments. […] The patients were then switched to doses of 2 g/m^2 of methotrexate for three subsequent treatments. Methotrexate was given after hydration and alkalization, with urine pH 7.0 or greater. The infusion was followed by continued hydration for several hours.
# (§2) Each methotrexate treatment was followed by intravenous leucovorin rescue with 50 mg leucovorin eight hours after the start of the methotrexate infusion. Oral leucovorin (25 mg) was administered every 6 hours for a total of 12 doses after intravenous leucovorin rescue, and the serum methotrexate level measured. If necessary oral leucovorin was continued until the serum level reached 0.05 μM.
# relapsing progressive MS = test: MSFC clinical outcome (9-HPT, 25-ft walk, PASAT) in patients treated with bimonthly high dose IV methotrexate; assay type: in vivo; design: 9-HPT change / 25-ft walk change: unit not given here
# Description: Ten patients of relapsing progressive MS were treated with bimonthly high dose intravenous methotrexate with leucovorin rescue, combined with interim treatment with low dose immunomodulatory agents.
# as §1, §2
# At the time of study entry, all patients were being treated, with interferon (AVONEX® or BETA-SERON®), glatiramer acetate (COPAXONE®), or oral methotrexate. These medications were continued between treatments.
# The clinical outcome was determined by MSFC scores at baseline and at two months follow up visits after each treatment. The MSFC is a clinical outcome measure, which measures three clinical functions involving hand dexterity, walking, and cognition. Two tailed paired t-test was used to compare the results of MSFC.
# [3] = Methotrexate in cerebrospinal fluid (CSF) after infusion; assay type: in vivo; conditions: five CSF samples, several patients and time points after infusion of 2 g/m^2
# Description: Five samples of cerebrospinal fluid (CSF) were analyzed for methotrexate, representing several patients and several time points after methotrexate infusion of 2 g/m^2.
# [4] = after one year of treatment, ten patients
# [5] = all patients together, two tailed paired t-test
# [6] = all patients together, two tailed paired t-test, p<0.05
# [7] = individual patient, change from baseline after one year, IV 1 g/m^2 x3 then 2 g/m^2 x3, every 2 months, leucovorin rescue, interim agent
compound,measurement,setting,value
Nc1nc2c(c(=O)[nH]1)N(C=O)C(CNc1ccc(C(=O)N[C@@H](CCC(=O)O)C(=O)O)cc1)CN2 (some centres unmarked) [leucovorin],crossing of the blood brain barrier (BBB) into the CNS,[1],does not penetrate the BBB
O=P1(N(CCCl)CCCl)NCCCO1 (centres unmarked) [cyclophosphamide],crossing of the blood brain barrier (BBB) into the CNS,[1],do not cross the blood brain barrier
same,efficacy against the progression of MS,MS; CNS lymphomas; in vivo,some efficacy
O=C1c2c(O)ccc(O)c2C(=O)c2c(NCCNCCO)ccc(NCCNCCO)c21 [mitoxantrone],crossing of the blood brain barrier (BBB) into the CNS,[1],do not cross the blood brain barrier
same,efficacy against the progression of MS,MS; CNS lymphomas; in vivo,some efficacy
same,toxicity limiting use,MS; CNS lymphomas; in vivo,limited lifetime use due to toxicity
"CN(Cc1cnc2nc(N)nc(N)c2n1)c1ccc(C(=O)N[C@@H](CCC(=O)O)C(=O)O)cc1 [Methotrexate, methotrexate]",tolerability,"[2]; IV 1 g/m^2, first three treatments",well tolerated
same,renal toxicity,"[2]; after one treatment, 2-week follow up creatinine clearance within acceptable limits",one patient experienced Grade I renal toxicity
same,alopecia,[2]; ten patients,No alopecia was noted
same,hematological toxicity,"[2]; ten patients, up to 6 treatments",No hematological toxicity was observed
same,nausea,"[2]; ten patients, easily treated with Zofran",Five patients experienced some nausea
same,MSFC scores of some of the patients,relapsing progressive MS; after 3 treatments at 1 g/m^2,improved significantly
same,maximum increase of overall MSFC,relapsing progressive MS; [4],+1.28
same,minimum increase of overall MSFC,relapsing progressive MS; [4],+0.08
same,clinical assessment with MSFC scores,relapsing progressive MS; after treatment,significant improvement
same,improvement in the 25-ft walk test,relapsing progressive MS; [5],not significant
same,improvement in the PASAT test,relapsing progressive MS; [5],not significant
same,mean nine-hole peg score after treatment,relapsing progressive MS; [6],significant improvement
same,mean overall MSFC score after treatment,relapsing progressive MS; [6],significant improvement
same,9-HPT change,relapsing progressive MS; [7],+0.45 and +0.86 and −0.31 and +0.20 and +0.83 and +0.30 and −0.10 and +0.80 and +1.07 and +0.70
same,25-ft walk change,relapsing progressive MS; [7],+0.04 and 0.00 and −0.01 (2×) and +0.08 and +0.14 and −0.04 and −0.07 and −0.22 and +0.53
same,MSFC change,relapsing progressive MS; [7],+0.38 and +0.31 and +0.25 and +0.18 and +0.13 and +0.09 and +0.08 (2×) and +1.28 and +0.56
same,PASAT change,relapsing progressive MS; [7],+0.66 and +0.08 and +1.08 and +0.25 and −0.58 and 0.00 and +0.41 and −0.33 and +2.24 and +0.99
same,PASAT (cognitive function): patients improved,relapsing progressive MS; of 10,6 patients
same,PASAT (cognitive function): patients turned worse,relapsing progressive MS; of 10,2
same,PASAT (cognitive function): patients unchanged,relapsing progressive MS; of 10,2
same,nine-hole peg test (arm function): patients improved,relapsing progressive MS; of 10,8 patients
same,nine-hole peg test (arm function): patients unchanged,relapsing progressive MS; of 10,1
same,nine-hole peg test (arm function): patients with minor worsening,relapsing progressive MS; of 10,1 patient
same,timed 25-ft walk (leg function): patients unchanged,relapsing progressive MS; of 10,7
same,timed 25-ft walk (leg function): patients with improvement,relapsing progressive MS; of 10,2 patients
same,timed 25-ft walk (leg function): patients with slight worsening,relapsing progressive MS; of 10,1
same,patients improved on MSFC,"relapsing progressive MS; of 10, after one year, change >+0.1",seven
same,patients unchanged on MSFC,"relapsing progressive MS; of 10, after one year, change less than 0.1",three
same,deterioration of symptoms of progressive MS,relapsing progressive MS; periodic high dose with leucovorin rescue and interim treatments,halted the deterioration of the symptoms in every patient treated
same,crossing of the BBB (methotrexate in CSF),[3],cross the BBB in cytotoxic amounts
same,serum level relative to crossing the BBB,[1]; administered orally,not sufficient to cross the BBB in cytotoxic amounts
same,toxicity of high dose in CNS lymphoma trials,"MS; CNS lymphomas; in vivo, iv",low toxicity
same,toxicity of high dose sporadically administered,"MS; CNS lymphomas; in vivo, iv",no significant toxicity
same,toxicity of low-dose oral treatment in progressive MS,"MS; CNS lymphomas; in vivo, po",minimal toxicity
same,upper extremity strength in MS patients,MS; CNS lymphomas; oral treatments,mild improvement
